Assay [1] concerns endometriosis vesicles. The assay can be described thus: Autotransplantation rat model of endometriosis: vesicle development and morphology. It counts as in vivo. The conditions noted are these: at 60 days. The text has this: Experiment 2 consisted of 51 female rats that underwent endometriosis induction (n=40) or sham surgery (n=11). From the 40 rats that underwent endometriosis induction, 20 rats received the CRHR1 antagonist antalarmin intraperitoneally (i.p.) and 20 rats received vehicle control i.p. (10% Tween 80) from days 1-7 after surgery and endometriosis was allowed to progress until day 60 after surgery. The remaining 11 rats that underwent sham surgery were left untreated until day 60 after surgery. The sham group was used as a non-endometriosis baseline comparison. Only rats with regular estrous cycles were used in the experiments as assessed by vaginal smear lavage during the 7 days prior to surgery and on the day of sacrifice. […] Therefore, the final group numbers for endometriosis quantification and behavior were: endometriosis-antalarmin=20, endometriosis-vehicle=20, sham=10. Cyclicity was not assessed during the drug administration and was only collected before treatment and the day of sacrifice. This was decided to avoid any additional stressors not related to the drug administration per se that may affect results. The estrous cycle distribution for experiments 1 and 2 can be accessed in FIG. 14.
First, endometriosis in female rats was induced by suturing uterine horn tissue next to the intestinal mesentery and allowed to progress for 7 days. After 7 days, it was determined that there was a significant increase in CRHR1 within endometriotic vesicles as compared to a normal uterus. Endometriosis was induced in a second group of rats, and further the second group of rats received consecutive doses of antalarmin of 20 milligrams per kilogram intraperitoneal (20 mg/kg, i.p.) during the first 7 days after surgery. A separate group of sham surgery rats served as controls.
Briefly, rats were anesthetized with isoflurane and four pieces of the right uterine horn were auto transplanted to 4 different blood vessels in the intestinal mesentery. The control group was sham operated animals for which the right uterine horn was massaged for 2 minutes and sutures were placed in the intestinal mesenteric area with no uterine implants. For group 1, sham or endometriosis operated rats were allowed to progress for 7 days after surgery before sacrificed. For group 2, endometriosis was allowed to progress for 60 days before sacrificing.
It was verified that the animals were deeply anesthetized. Rats were weighed, and a cytological smear taken to verify stage of the estrous cycle. The peritoneal and thoracic cavities were opened, and a blood sample was collected directly from the heart. Following this, peritoneal fluid was collected using a sterile plastic pipette. Examination was directed to the presence of endometriosis vesicles. The implants that developed into vesicles were excised from the mesentery, weighed and measured using a digital caliper. Classification of vesicles was carried out and assigned the following grades: grade 1=disappeared; grade 2=0.01-1.99 mm; grade 3=2-4.49 mm; grade 4=4.5-5.99 mm; grade 5=6.0 mm or larger. In sham animals, empty suture sites were counted and collected. In addition to the endometriosis vesicles, the adrenal glands were collected, all surrounding fatty tissue was removed, and the cleared adrenal glands were weighed. Additionally, tissues from colon and the left uterine horn were collected. All tissues were flash frozen and stored at −80° until further processing.

Assay [2] relates to CRH, UCN1, CRHR1, CRHR2 and glucocorticoid receptor (GR) mRNA. The assay can be described thus: qRT-PCR of mRNA levels in uterus and endometriosis vesicles. It counts as in vivo, rat. The conditions noted are these: normalized to sham uterus, day 60. Here is the method:
(§1) Endometriosis vesicles and normal uterine tissue from endometriosis or sham rats, were lysed in an RLT buffer (QIAGEN, Germantown, Md.) using the BULLET BLENDER Tissue Homogenizer (NEXT ADVANCE, Averill Park, N.Y.). The total RNA from the lysates were extracted according to RNEASY Mini Kit manufacturer's protocol (QIAGEN, Germantown, Md.). RNA concentration and purity were measured on a NanoDrop™ 2000 UV spectrophotometer (Thermo Scientific™, Wilmington, USA). Concentration and quality of RNA samples were acquired based on the ratio of absorbance at 260/280 nm in the spectrophotometer. To carry out the synthesis of cDNA from RNA samples a total reaction volume of 20 μl including 0.1 μg of total RNA concentration and synthesis reagents was used. A iScript™ cDNA Synthesis Kit was used according to manufacturer's protocol (BIO-RAD, Hercules, Calif.). Reactions were carried out in T-100™ thermal cycler (BIO-RAD, Hercules, Calif.). RT-PCR running method was as follows: 25° C. for 5 min, 42° C. for 30 min, 85° C. for 5 min. Samples were stored at −80° C. for later experimentation or qRT-PCR.
(§2) Real time quantitative PCR (qPCR) was used to evaluate changes in mRNA expression. For this, 25 μl of a total volume of reaction assay was used with 1:10 dilution of cDNA with iQ™ SYBR Green Supermix (BIO-RAD Hercules, Calif.) in a 96 well plate according to the manufacturer protocol and amplified in a Quant Studio™ 12 K Flex Real time PCR System (Applied Biosystems™, Carlsbad, Calif.). Commercial primers for CRH, UCN1 CRHR1, CRHR2 and glucocorticoid receptor (GR) were purchased from QIAGEN (Germantown, Md.). Real time PCR cycles protocol was as follows: 95° C. for 10 min. for enzyme activation followed by 40 cycles of denaturing at 95° C. for 15 sec. and annealing at 60° C. for 1 min. All changes in gene expression were normalized against GAPDH of each sample. CT values and changes per gene expression level were automatically analyzed by the Quantstudio™ 12 K Flex Software (Applied Biosystems™, Carlsbad, Calif.). All samples were run in duplicate. For comparison purposes, mRNA from sham rats were always run within the same plate as experimental samples from vehicle treated and antalarmin treated groups.
GraphPad Prism 6.0 (GraphPad Software, San Diego, Calif.) was used to prepare graphs and run statistical analyses. Data is presented as mean difference+SEM and a p value <0.05 was considered statistically significant. The variability between groups was first assessed followed by a test for outlier values. […] A One-way analysis of variance (ANOVA) was used to compare behaviors. A one-sample t-test against the sham rats value normalized to 1.0. was used to assess RT-PCR results. A repeated measures One-way ANOVA was used to compare changes in weight gain between treatment groups.

For assay [3], the system named is CRHR1, CRHR2, CRH and GR mRNA in hippocampus. The assay can be described thus: qRT-PCR of mRNA levels in hippocampus. Format: in vivo, rat. The following applies: day 60. Here is the method: as §1, §2
Endometriosis and antalarmin have long-lasting effects in the brain. Previous work reported a decrease in CRH within hippocampus of animals with endometriosis compared to sham rats that were subject to stress. Given that antalarmin readily crosses the blood brain barrier, the effects of treatment in the hippocampus was quantified. […] It appears that the increase in CRH1 was balanced out by an equally similar increase in CRH2. This was not observed in the vehicle treated groups (FIGS. 10A and 10B). mRNA was collected and quantified as described in Example 1. […]
A general note: In qPCR the cycle at which signal appears reflects the starting amount.

Where [4] appears, read: 20 mg/kg i.p. days 1-7 after surgery.
Setting [5] is: normalized to sham, large variability.

From US10729693B2, “Compositions and methods for the treatment of endometriosis” (PONCE MEDICAL SCHOOL FOUNDATION, INC., priority 2018, dated 2020) come the findings set out here.

Consider `CCCCN(CC)c1nc(C)nc2c1c(C)c(C)n2-c1c(C)cc(C)cc1C` [antalarmin], for which, in assay [1] (setting [4]), the “average vesicle area per rat, difference to vehicle” value is reported as 55%; the “average vesicle volume per rat, difference to vehicle” value was 68%; the “total weight of endometriosis vesicles (sum per rat), less than vehicle control (size decrease)” value was found to be 67%. Besides, the “decrease in the number of developed endometriosis vesicles” value in assay [1] (20 mg/kg i.p. days 1-7 after surgery, vs vehicle) is recorded as 30%. Also, the “vesicle classification by grade (1-5, length scale)” value in assay [1] (vs vehicle treated control) is “a larger percentage of endometriosis vesicles that disappeared, as well as a reduced percentage of vesicles of grade 3 and 5”. Moreover, in assay [2], the “UCN1 mRNA in uterus and vesicles” value is recorded as “not altered”; the “glucocorticoid receptor (GR) mRNA in uterus” value is given as “no changes in uterus”; the “glucocorticoid receptor (GR) mRNA in vesicles” value was “significant mRNA fold increase”. In addition, in assay [2] (increase only in vesicles of vehicle animals), the “CRHR2 mRNA in uterus and vesicles” value is “No other changes were observed”. Also, in assay [2] (increased in vehicle group), the “CRHR1 mRNA in endometriosis vesicles” value is “this increase was not observed”. In addition, the “CRH mRNA in uterus and vesicles” value in assay [2] (two-fold increase in vehicle rats) is listed as “this increase was not observed”. In assay [3] (compared to sham), the “hippocampal CRH mRNA” value was “increase in hippocampal CRH mRNA of similar magnitude” and the “hippocampal GR mRNA” value is given as “fourfold increase”. Moreover, in assay [3] (setting [5]), the “hippocampal CRHR1 mRNA increase” value was determined as 15 fold and the “hippocampal CRHR2 mRNA increase” value stood at 15 fold.
